Measured values reported in patent US20100168102A9, “Amide Derivatives as Kinase Inhibitors” (Devgen NV, priority 2005, published 2010).

Tests used:
PKC epsilon = biological target: T1, PKC epsilon (Homo sapiens, UniProt Q02156); experiment: Biochemical assay for PKC epsilon (fluorescence polarization, Protein Kinase C Assay Kit, Red); settings: compounds of Formula XIV, Table 3; read-out: IC50 μM PKCε
T1 construct: purchased Invitrogen P2282
T1 sequence (Q02156 1-737): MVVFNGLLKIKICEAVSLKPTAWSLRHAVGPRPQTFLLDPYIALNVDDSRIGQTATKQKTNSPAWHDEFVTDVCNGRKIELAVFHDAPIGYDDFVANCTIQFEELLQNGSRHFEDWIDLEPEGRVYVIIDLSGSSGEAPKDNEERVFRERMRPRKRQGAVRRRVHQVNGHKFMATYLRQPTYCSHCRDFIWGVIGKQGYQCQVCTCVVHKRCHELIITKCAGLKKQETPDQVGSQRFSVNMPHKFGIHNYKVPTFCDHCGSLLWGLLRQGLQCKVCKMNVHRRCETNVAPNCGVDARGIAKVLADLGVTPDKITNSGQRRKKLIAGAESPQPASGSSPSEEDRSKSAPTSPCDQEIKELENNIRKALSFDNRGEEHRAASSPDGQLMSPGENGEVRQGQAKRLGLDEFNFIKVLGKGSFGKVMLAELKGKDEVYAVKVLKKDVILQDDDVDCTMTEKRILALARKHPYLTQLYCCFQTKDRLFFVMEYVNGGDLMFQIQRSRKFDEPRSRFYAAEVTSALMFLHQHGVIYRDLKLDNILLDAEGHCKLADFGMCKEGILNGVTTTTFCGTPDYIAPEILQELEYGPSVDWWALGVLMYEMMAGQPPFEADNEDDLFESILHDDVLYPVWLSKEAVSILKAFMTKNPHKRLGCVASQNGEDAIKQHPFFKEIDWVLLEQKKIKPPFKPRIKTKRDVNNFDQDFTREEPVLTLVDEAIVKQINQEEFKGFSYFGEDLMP
Summary of the method: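 PKC epsilon at 10 ng/ml final was preincubated 30 min at room temperature with compound in HEPES pH 7.4 with DTT and Triton X-100. ATP/protein substrate was then added in buffer with MgCl2 and CaCl2 for 80 min. The reaction was stopped with EDTA, phosphorylation was detected by fluorescence polarization with rhodamine tracer and anti-phosphoserine antibody, and IC50 values came from curve fits.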

human ROCKα/ROCKII mix = biological target: T2, human ROCKα/ROCKII mix (Homo sapiens, UniProt O75116); experiment: Biochemical assay for ROCK (fluorescence polarization, ROCK IMAP Kit); settings: compounds of Formula XIV, Table 3
T2 construct: purchased Upstate Biotechnology 14-451
T2 sequence (O75116 11-552 limits assumed): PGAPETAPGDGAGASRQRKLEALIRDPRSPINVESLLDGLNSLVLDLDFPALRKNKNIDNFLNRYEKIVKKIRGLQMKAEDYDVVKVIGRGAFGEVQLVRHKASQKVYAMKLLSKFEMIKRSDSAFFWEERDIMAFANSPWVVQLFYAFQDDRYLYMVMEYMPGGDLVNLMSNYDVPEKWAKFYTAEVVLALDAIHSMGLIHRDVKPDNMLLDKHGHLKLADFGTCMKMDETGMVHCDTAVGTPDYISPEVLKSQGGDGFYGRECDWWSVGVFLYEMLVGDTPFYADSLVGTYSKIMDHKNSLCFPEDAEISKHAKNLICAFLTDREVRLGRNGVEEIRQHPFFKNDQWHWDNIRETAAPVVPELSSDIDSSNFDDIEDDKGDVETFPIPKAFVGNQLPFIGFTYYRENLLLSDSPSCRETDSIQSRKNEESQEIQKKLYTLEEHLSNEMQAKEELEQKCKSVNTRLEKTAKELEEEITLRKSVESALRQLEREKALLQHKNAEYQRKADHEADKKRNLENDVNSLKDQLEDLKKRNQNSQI

Row | IC50 (PKC epsilon) | IC50 (human ROCKα/ROCKII mix) | Structure (SMILES)
1 | 5 to 50 µM | 0.5 to 5 µM | N#CCCN(C(=O)CC(N)c1ccc(C(=O)Nc2ccncc2)cc1)C1CC1 (centres unmarked) [Compound 178, 4-{1-amino-2-[(2-cyano-ethyl)-cyclopropyl-carbamoyl]-ethyl}-N-pyridin-4-yl-benzamide]
2 | 0.5 to 5 µM | 0.05 to 0.5 µM | COCCNC(=O)CC(N)c1ccc(C(=O)Nc2ccncc2)cc1 (centres unmarked) [Compound 180, 4-[1-amino-2-(2-methoxy-ethylcarbamoyl)-ethyl]-N-pyridin-4-yl-benzamide]
3 | 0.5 to 5 µM | 0.05 to 0.5 µM | COCC(C)NC(=O)CC(N)c1ccc(C(=O)Nc2ccncc2)cc1 (centres unmarked) [Compound 181, 4-[1-amino-2-(2-methoxy-1-methyl-ethylcarbamoyl)-ethyl]-N-pyridin-4-yl-benzamide]
4 | 0.5 to 5 µM | 0.05 to 0.5 µM | COC(=O)C(C)NC(=O)CC(N)c1ccc(C(=O)Nc2ccncc2)cc1 (centres unmarked) [Compound 182]
5 | 0.5 to 5 µM | 0.05 to 0.5 µM | CONC(=O)CC(N)c1ccc(C(=O)Nc2ccncc2)cc1 (centres unmarked) [Compound 183, 4-(1-amino-2-methoxycarbamoyl-ethyl)-N-pyridin-4-yl-benzamide]
6 | 0.5 to 5 µM | 0.05 to 0.5 µM | Cc1cccc(CN2CCC(NC(=O)CC(N)c3ccc(C(=O)Nc4ccncc4)cc3)CC2)c1 (centres unmarked) [Compound 201, 4-{1-amino-2-[1-(3-methyl-benzyl)-piperidin-4-ylcarbamoyl]-ethyl}-N-pyridin-4-yl-benzamide]
7 | 0.5 to 5 µM | 0.05 to 0.5 µM | Cc1ccc(CN2CCC(NC(=O)CC(N)c3ccc(C(=O)Nc4ccncc4)cc3)CC2)s1 (centres unmarked) [Compound 202]
8 | 0.5 to 5 µM | 0.05 to 0.5 µM | CC[C@H](NC(=O)CC(N)c1ccc(C(=O)Nc2ccncc2)cc1)c1ccccc1 (stereo partly drawn) [Compound 217, 4-[1-Amino-2-(1-(S)-phenyl-propylcarbamoyl)-ethyl]-N-pyridin-4-yl-benzamide]
9 | 0.5 to 5 µM | 0.05 to 0.5 µM | CC(C)(NC(=O)CC(N)c1ccc(C(=O)Nc2ccncc2)cc1)c1ccccc1 (centres unmarked) [Compound 218, 4-[1-Amino-2-(1-methyl-1-phenyl-ethylcarbamoyl)-ethyl]-N-pyridin-4-yl-benzamide]
10 | 0.5 to 5 µM | 0.05 to 0.5 µM | NC(CC(=O)NC1c2ccccc2-c2ccccc21)c1ccc(C(=O)Nc2ccncc2)cc1 (centres unmarked) [Compound 227, 4-[1-Amino-2-(9H-fluoren-9-ylcarbamoyl)-ethyl]-N-pyridin-4-yl-benzamide]
11 | 0.5 to 5 µM | 0.05 to 0.5 µM | Cc1cccc(CNC(=O)CC(N)c2ccc(C(=O)Nc3ccncc3)cc2)c1 (centres unmarked) [Compound 232, 4-[1-Amino-2-(3-methyl-benzylcarbamoyl)-ethyl]-N-pyridin-4-yl-benzamide]
12 | 0.5 to 5 µM | 0.05 to 0.5 µM | COc1ccc(OC)c(CNC(=O)CC(N)c2ccc(C(=O)Nc3ccncc3)cc2)c1 (centres unmarked) [Compound 242, 4-[1-Amino-2-(2,5-dimethoxy-benzylcarbamoyl)-ethyl]-N-pyridin-4-yl-benzamide]
13 | 0.5 to 5 µM | 0.05 to 0.5 µM | COc1ccc(C(NC(=O)CC(N)c2ccc(C(=O)Nc3ccncc3)cc2)c2ccc(OC)cc2)cc1 (centres unmarked) [Compound 244, 4-(1-Amino-2-{[bis-(4-methoxy-phenyl)-methyl]-carbamoyl}-ethyl)-N-pyridin-4-yl-benzamide]
14 | 0.5 to 5 µM | 0.05 to 0.5 µM | NC(CC(=O)NCc1ccccc1Cl)c1ccc(C(=O)Nc2ccncc2)cc1 (centres unmarked) [Compound 246, 4-[1-Amino-2-(2-chloro-benzylcarbamoyl)-ethyl]-N-pyridin-4-yl-benzamide]
15 | 0.5 to 5 µM | 0.05 to 0.5 µM | Cc1cccc(Cl)c1CNC(=O)CC(N)c1ccc(C(=O)Nc2ccncc2)cc1 (centres unmarked) [Compound 247, 4-[1-Amino-2-(2-chloro-6-methyl-benzylcarbamoyl)-ethyl]-N-pyridin-4-yl-benzamide]

The next lines start with the compound.

Row | Structure (SMILES) | IC50 (PKC epsilon) | IC50 (human ROCKα/ROCKII mix)
16 | CS(=O)(=O)NCCNC(=O)CC(N)c1ccc(C(=O)Nc2ccncc2)cc1 (centres unmarked) [Compound 176, 4-[1-amino-2-(2-methanesulfonylamino-ethylcarbamoyl)-ethyl]-N-pyridin-4-yl-benzamide] | 0.5 to 5 µM | 0.05 to 0.5 µM
17 | CN(CCO)C(=O)CC(N)c1ccc(C(=O)Nc2ccncc2)cc1 (centres unmarked) [Compound 179, 4-{1-amino-2-[(2-hydroxy-ethyl)-methyl-carbamoyl]-ethyl}-N-pyridin-4-yl-benzamide] | 0.5 to 5 µM | 0.05 to 0.5 µM
18 | NC(CC(=O)NCC1CCCO1)c1ccc(C(=O)Nc2ccncc2)cc1 (centres unmarked) [Compound 184, 4-{1-amino-2-[(tetrahydro-furan-2-ylmethyl)-carbamoyl]-ethyl}-N-pyridin-4-yl-benzamide] | 0.5 to 5 µM | 0.05 to 0.5 µM
19 | NC(CC(=O)NC1CCN(Cc2ccccc2)CC1)c1ccc(C(=O)Nc2ccncc2)cc1 (centres unmarked) [Compound 200, 4-[1-amino-2-(1-benzyl-piperidin-4-ylcarbamoyl)-ethyl]-N-pyridin-4-yl-benzamide] | 0.5 to 5 µM | 0.05 to 0.5 µM
20 | NC(CC(=O)NCc1ccccc1)c1ccc(C(=O)Nc2ccncc2)cc1 (centres unmarked) [Compound 213, 4-(1-Amino-2-benzylcarbamoyl-ethyl)-N-pyridin-4-yl-benzamide] | 0.5 to 5 µM | 0.05 to 0.5 µM
21 | CC(NC(=O)CC(N)c1ccc(C(=O)Nc2ccncc2)cc1)c1ccccc1 (centres unmarked) [Compound 215, 4-[1-Amino-2-(1-phenyl-ethylcarbamoyl)-ethyl]-N-pyridin-4-yl-benzamide] | 0.5 to 5 µM | 0.05 to 0.5 µM
22 | CC[C@@H](NC(=O)CC(N)c1ccc(C(=O)Nc2ccncc2)cc1)c1ccccc1 (stereo partly drawn) [Compound 216, 4-[1-Amino-2-(1-(R)-phenyl-propylcarbamoyl)-ethyl]-N-pyridin-4-yl-benzamide] | 0.5 to 5 µM | 0.05 to 0.5 µM
23 | NC(CC(=O)NC1CCCc2ccccc21)c1ccc(C(=O)Nc2ccncc2)cc1 (centres unmarked) [Compound 223, 4-[1-Amino-2-(1,2,3,4-tetrahydro-naphtalen-1-ylcarbamoyl)-ethyl]-N-pyridin-4-yl-benzamide] | 0.05 to 0.5 µM | 0.05 to 0.5 µM
24 | NC(CC(=O)NC(c1ccccc1)c1ccccc1)c1ccc(C(=O)Nc2ccncc2)cc1 (centres unmarked) [Compound 225, 4-[1-Amino-2-(benzhydryl-carbamoyl)-ethyl]-N-pyridin-4-yl-benzamide] | 0.5 to 5 µM | 0.05 to 0.5 µM
25 | NC(CC(=O)NC1CCc2ccccc21)c1ccc(C(=O)Nc2ccncc2)cc1 (centres unmarked) [Compound 228, 4-[1-Amino-2-(indan-1-ylcarbamoyl)-ethyl]-N-pyridin-4-yl-benzamide] | 0.05 to 0.5 µM | 0.05 to 0.5 µM
26 | CC(NC(=O)CC(N)c1ccc(C(=O)Nc2ccncc2)cc1)c1cccc2ccccc12 (centres unmarked) [Compound 229, 4-{1-Amino-2-(1-naphtalen-1-yl-ethylcarbamoyl)-ethyl]-N-pyridin-4-yl-benzamide] | 0.5 to 5 µM | 0.05 to 0.5 µM
27 | CC(NC(=O)CC(N)c1ccc(C(=O)Nc2ccncc2)cc1)c1cccc2ccccc12 (centres unmarked) [Compound 230, 4-[1-Amino-2-(1-naphtalen-1-yl-ethylcarbamoyl)-ethyl]-N-pyridin-4-yl-benzamide] | 0.5 to 5 µM | 0.05 to 0.5 µM
28 | Cc1ccccc1CNC(=O)CC(N)c1ccc(C(=O)Nc2ccncc2)cc1 (centres unmarked) [Compound 231, 4-[1-Amino-2-(2-methyl-benzylcarbamoyl)-ethyl]-N-pyridin-4-yl-benzamide] | 0.5 to 5 µM | 0.05 to 0.5 µM
29 | Cc1ccc(CNC(=O)CC(N)c2ccc(C(=O)Nc3ccncc3)cc2)cc1 (centres unmarked) [Compound 233, 4-[1-Amino-2-(4-methyl-benzylcarbamoyl)-ethyl]-N-pyridin-4-yl-benzamide] | 0.5 to 5 µM | 0.05 to 0.5 µM
30 | Cc1ccc(C)c(CNC(=O)CC(N)c2ccc(C(=O)Nc3ccncc3)cc2)c1 (centres unmarked) [Compound 234, 4-[1-Amino-2-(2,5-dimethyl-benzylcarbamoyl)-ethyl]-N-pyridin-4-yl-benzamide] | 0.5 to 5 µM | 0.05 to 0.5 µM
31 | COc1cccc(CNC(=O)CC(N)c2ccc(C(=O)Nc3ccncc3)cc2)c1OC (centres unmarked) [Compound 238, 4-[1-Amino-2-(2,3-dimethoxy-benzylcarbamoyl)-ethyl]-N-pyridin-4-yl-benzamide] | 5 to 50 µM | 0.05 to 0.5 µM
32 | COc1ccc(CNC(=O)CC(N)c2ccc(C(=O)Nc3ccncc3)cc2)cc1 (centres unmarked) [Compound 239, 4-[1-Amino-2-(4-methoxy-benzylcarbamoyl)-ethyl]-N-pyridin-4-yl-benzamide] | 0.5 to 5 µM | 0.05 to 0.5 µM
33 | COc1ccc(CNC(=O)CC(N)c2ccc(C(=O)Nc3ccncc3)cc2)cc1OC (centres unmarked) [Compound 240, 4-[1-Amino-2-(3,4-dimethoxy-benzylcarbamoyl)-ethyl]-N-pyridin-4-yl-benzamide] | 5 to 50 µM | 0.05 to 0.5 µM
34 | COc1cccc(OC)c1CNC(=O)CC(N)c1ccc(C(=O)Nc2ccncc2)cc1 (centres unmarked) [Compound 243, 4-[1-Amino-2-(2,6-dimethoxy-benzylcarbamoyl)-ethy]-N-pyridin-4-yl-benzamide] | 0.5 to 5 µM | 0.05 to 0.5 µM
